Measurements as given in US8828940B2, “Method of treating an ischemia-reperfusion injury-related disorder by administering GPCR ligands” (priority 2006, dated 2014).
No end group written: not given here.

Legend:
[1] = system: cardiac remodeling induced by Isoproterenol in Wistar rats; assay: Cardiac remodeling induced by Isoproterenol; type: in vivo, rat
Experimental: The effect of the peptides […] (SEQ ID NO:10), […]-dimer ([…]) (SEQ ID NO9), P33_V (SEQ ID NO:7), P33-dimer (P33_D) (SEQ ID NO:6) on cardiac remodeling, was tested by determining their effect on heart hypertrophy and fibrosis (deposition of collagen I, III, and fibronectin) induced by Isoproterenol. Losartan (an antagonist of the known angiotensin II receptor, AT1, Kucharewicz et al., 2002; Hypertension, (40): 774-779) was used as positive control. The negative control group was treated with vehicle only. Additional control groups included rats not-treated with isoproterenol which were treated with the peptides, with Losartan or with the vehicle. The analysis included determination of the left ventricle mass and morphometry. In addition, immunofuorescence analysis of fibronectin and collagens I and III deposition was performed by confocal microcopy. Animals Acclimatization: Male Wistar rats Age: 13-14 weeks (250 to 300 g) were maintained in the animal facilities for 7 days before the beginning of the experiment. The animals were exposed to a brightness circle of light-dark cycle of 12hs (day-06:00 to 18:00; night-18:00 to 06:00), and the room temperature was kept at 23±2° C. Heart failure was induced by daily injections of isoproterenol (2 mg/kg/day, subcutaneously) during 7 days. […] Immunofluorescence-labeling and quantitative confocal microscopy was used to investigate the distribution and quantity of collagen types I, III and fibronectin present in the left ventricles. […] Optimal confocal settings (aperture, gain and laser power) were determined at the beginning of each imaging session and then held constant during the analysis of all the samples. […] For quantitative analysis of collagens I, III, and fibronectin, the ImageTool 2.0 image analysis program was used (see “[…] University of Texas Health Science Center at San Antonio website) to measure the fluorescence intensity in images randomly selected. […]

FPRL1 [2] = molecular target: T1, FPRL1 (Homo sapiens, UniProt P25090); assay: Calcium flux in FPRL1-transfected CHO-K1 cells; type: cell-based; parameters: expressed in transfected cells; host or cells: CHO-K1 (ATCC-CCL-61), transient co-transfection; details: for calcium flux relative to the negative control: CHO-K1 co-transfected with FPRL1 and Gα16, 1 μM, about 20-90 seconds
T1 sequence (P25090 1-351): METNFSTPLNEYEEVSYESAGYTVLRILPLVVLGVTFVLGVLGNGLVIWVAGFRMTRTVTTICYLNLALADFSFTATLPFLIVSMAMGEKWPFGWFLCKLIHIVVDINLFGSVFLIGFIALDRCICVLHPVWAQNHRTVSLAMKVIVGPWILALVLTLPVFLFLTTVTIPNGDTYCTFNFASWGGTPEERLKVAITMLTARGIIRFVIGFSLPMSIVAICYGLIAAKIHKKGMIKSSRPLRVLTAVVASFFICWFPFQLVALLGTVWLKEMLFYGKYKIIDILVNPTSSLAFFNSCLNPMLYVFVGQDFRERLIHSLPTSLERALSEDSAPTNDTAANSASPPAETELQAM
Experimental: (§1) The assay was carried out in CHO cells were transiently transfected with the GPCR of choice, by utilizing the promiscuous Gα16 to divert signaling to the Gq pathway, thus enabling readout of GPCR activation by testing for Calcium flux as described by Liu et al 2003 (Biomol Screen 8, 39-49).
(§2) All the peptides thus obtained were tested for their ability to change calcium flux in CHO-K1 cells (ATCC-CCL-61) transiently co-transfected with an expression vector containing the GPCR of choice and expression vector containing the Gα16 encoding cDNA. Expression constructs containing cDNA clones for MrgX1, MrgX2, Mas or FPRL1 were commercially obtained in one of the following expression vectors: pcDNA3.1, pCMV6, or MO2.
(§3) Transient transfections were performed using CHO-K1 cells as host cells. Cells (12 million) were plated into T75 flasks on the day preceding transfection. Cells were transfected with the appropriate GPCR expression vector and with a vector expressing Gα16 using a lipid-based reagent, MTI, according to the manufacturer's recommendation. Cells were transfected for 5 hours, then re-plated into 96-well dishes (60,000 cells per well) and grown overnight.
On the day of the experiment, cells were loaded with Fluo-4-NW (Invitrogen) according to the manufacturer's recommendation. Plates were loaded into a FlexStation™ (Molecular Devices) plate reader and fluorescence was monitored. […] Each 96 well plate contained cells transfected with one GPCR expression vector and each of the examined peptides was tested in triplicate.
(§4) We defined a hit as a peptide which elicited a clear and distinct increase in intracellular calcium that is clearly visible and statistically significant upon examination of the calcium trace for at least two repeats. The criterion for statistical significance was a p-value lower than 0.001 in a t-test comparing the levels of calcium before and after peptide addition.
The ability of Peptides to change calcium flux was examined in CHO-K1 cells co-transfected with FPRL1 and Gα16.
The P33-derived peptides (see FIG. 1): P33_V (SEQ ID NO:7), P33 (SEQ ID NO:6)-mono, P33 (SEQ ID NO:6)-dimer, P33—5 (SEQ ID NO:27), P33—8 (SEQ ID NO:14), P33—9 (SEQ ID NO:15) and P33—10 (SEQ ID NO:16) were tested for their ability to activate FPRL1 using the calcium flux assay in FPRL1-transfected CHO cells. […] The lack of activity of these peptides might be due to reduced potency; insufficient sensitivity of the experimental system, alternative interaction of the receptor, or activation of other pathways, which are not related to calcium flux. Thus, this interaction should be further characterized.

MrgX2 = molecular target: T2, MrgX2 (Homo sapiens, UniProt Q96LB1); assay: Calcium flux in MrgX2-transfected CHO-K1 cells; type: cell-based; details: for calcium flux relative to the negative control: CHO-K1 co-transfected with MrgX2 and Gα16, 1 μM, about 20-90 seconds; for eliciting calcium flux compared with cortistatin-14: summary statement, MrgX2-expressing cells
T2 construct: expressed in transfected cells; host or cells: CHO-K1 (ATCC-CCL-61), transient co-transfection
T2 sequence (Q96LB1 1-330): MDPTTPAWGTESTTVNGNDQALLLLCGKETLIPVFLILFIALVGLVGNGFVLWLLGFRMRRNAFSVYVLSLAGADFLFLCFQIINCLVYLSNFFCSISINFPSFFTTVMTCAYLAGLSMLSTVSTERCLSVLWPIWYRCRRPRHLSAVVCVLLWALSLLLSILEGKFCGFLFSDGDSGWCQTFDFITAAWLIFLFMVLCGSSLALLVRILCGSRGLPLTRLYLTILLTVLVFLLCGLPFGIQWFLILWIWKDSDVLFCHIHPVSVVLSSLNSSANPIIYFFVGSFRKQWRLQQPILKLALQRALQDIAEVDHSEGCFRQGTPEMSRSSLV
Experimental: as §1, §2, §3
(§5) On the day of the experiment, cells were loaded with Fluo-4-NW (Invitrogen) according to the manufacturer's recommendation. Plates were loaded into a FlexStation™ (Molecular Devices) plate reader and fluorescence was monitored. Seventeen seconds following initiation of reading, cells were stimulated with the indicated agonist/compound at final concentration of 1 μM. Each 96 well plate contained cells transfected with one GPCR expression vector and each of the examined peptides was tested in triplicate.
as §4
The ability of Peptides to change calcium flux was examined in CHO-K1 cells co-transfected with MrgX2 and Gα16.

Mas receptor = molecular target: T3, Mas receptor (Homo sapiens, UniProt P04201); assay: Calcium flux in Mas-transfected CHO-K1 cells; type: cell-based; details: dose response, Mas-transfected cells
T3 construct: expressed in transfected cells; host or cells: CHO-K1 (ATCC-CCL-61), transient co-transfection
T3 sequence (P04201 1-325): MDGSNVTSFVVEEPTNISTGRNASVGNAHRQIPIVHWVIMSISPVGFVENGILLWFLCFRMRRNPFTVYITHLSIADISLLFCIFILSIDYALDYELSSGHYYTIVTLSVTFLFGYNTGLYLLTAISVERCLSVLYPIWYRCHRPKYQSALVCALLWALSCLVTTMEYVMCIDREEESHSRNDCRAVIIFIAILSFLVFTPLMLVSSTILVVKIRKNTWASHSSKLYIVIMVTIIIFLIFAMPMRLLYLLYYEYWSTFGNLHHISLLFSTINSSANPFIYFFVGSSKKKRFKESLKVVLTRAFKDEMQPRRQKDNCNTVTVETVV
Experimental: as §1, §2, §3, §5, §4
Based on dose response experiments, EC50 best fit values were calculated by non-linear regression of sigmoidal dose-response curves, using Prism version 4 (GraphPad Software Inc., San Diego, Calif.). The formulae for the sigmoidal dose-response curves was defined as Y=Bottom+(Top−Bottom)/(1+10^(Log EC50−X)*HillSlope))
The ability of Peptides to change calcium flux was examined in CHO-K1 cells co-transfected with Mas receptor and Gα16.
The P33 monomer and dimer, as well as other P33 derivative peptides were compared for their ability to induce calcium flux in the Mas-transfected cells at 0.1, 1, 10, 100, 1000 and 10000 nM.

FPRL1 [3] = molecular target: T1, FPRL1; assay: Competitive radioligand binding assay to FPRL1 ([125I] WKYMVm); parameters: expressed in transfected cells; host or cells: CHO cells; details: 0.025 nM [125I] WKYMVm; CHO transfected cells
Experimental: The specific binding of Peptide 58 (SEQ ID NO:1) to FPRL1 was analyzed by testing its ability to compete with 0.025 nM [^125I] WKYMVm (W peptide), a known agonist of FPRL1, for binding to FPRL1 in CHO transfected cells. CKβ8-1 (aa 46-137), another known ligand of FPRL1 was used as a positive control in this assay (Chiang et al 2006, Pharmacological Reviews 58, 463-487). Peptides were incubated with cells for 90 minutes at 25° C., in the presence of Incubation Buffer (50 mM HEPES, pH 7.4, 100 mM NaCl, 5 mM KCl, 5 mM MgCl2, 2 mM Ca Cl2, 0.5% BSA) and the amount of radioactive W peptide was measured.

Row | calcium flux relative to the negative control (FPRL1 [2]) | calcium flux relative to the negative control (MrgX2) | eliciting calcium flux compared with cortistatin-14 (MrgX2) | Molecule | other results
1 | increased calcium flux | increased calcium flux | superior to cortistatin-14 | AAQATGPLQDNELPGLDERPPRAHAQHFHKHQLWPSPFRALKPRP (listed as Homo sapiens) [Peptide P94] | –
2 | increased calcium flux | – | – | TIPMFVPESTSKLQKFTSWFM-NH2 [Peptide P58] | calcium flux (P58 family) (FPRL1 [2]; dose response, FPRL1 transfected CHO cells): elicited calcium flux; Ki (FPRL1 [3]): 0.0541 µM

More lines, now with the values behind:

Row | Molecule | calcium flux relative to the negative control (FPRL1 [2]) | calcium flux relative to the negative control (MrgX2) | eliciting calcium flux compared with cortistatin-14 (MrgX2) | other results
3 | CCCCc1nc(Cl)c(CO)n1Cc1ccc(-c2ccccc2-c2nn[nH]n2)cc1 [Losartan, reference compound] | – | – | – | left ventricle to body mass ratio (LV/BW) ([1]; isoproterenol 2 mg/kg/day s.c. 7 days, peptides 1 ug/hour/Kg by osmotic minipump, Losartan 1 mg/kg once a day by gavage): did not have an effect
4 | AHAQHFHKHQLWPSPFRALKPRP (listed as Homo sapiens) [Peptide 63] | – | increased calcium flux | superior to cortistatin-14 | –
5 | FLGYCIYLNRKRRGDPAFKRRLRD (also: dimer via cysteine; listed as Homo sapiens) [Peptide P61_dimer] | – | – | – | ability to induce calcium flux, relative potency (P61 family) (Mas receptor): more potent than the monomeric P61 peptides; heart hypertrophy as measured by deposition of Fibronectin, Collagen I and Collagen III ([1]; 1 ug/hour/Kg by osmotic minipump, partial data, 3 out of 6 animals of each group): effective in reducing the heart hypertrophy; effect as measured by Fibronectin deposition ([1]; partial data, 3 out of 6 animals, FIG. 40): not significant
